Reference: US20060293307A1, “Oxazolidinone derivatives as antimicrobials” (priority 2002, published 2006)
≈ marks a conversion by molar mass, not a printed value. Like-named read-outs stand apart in the source and are kept apart here.

Tests used:
Assay in all cases: MIC, agar incorporation method
[1] = tested on: S. aureus ATCC 25923; format: cell-based, Staphylococcus aureus
[2] = tested on: S. aureus ATCC29213; format: cell-based, Staphylococcus aureus
[3] = tested on: S. aureus SG 511; format: cell-based, Staphylococcus aureus
[4] = tested on: S. aureus (MRSA) 15187; format: cell-based, Staphylococcus aureus
[5] = tested on: S. aureus (MRSA) 21299; format: cell-based, Staphylococcus aureus
[6] = tested on: S. aureus (MRSA) ST450; format: cell-based, Staphylococcus aureus
[7] = tested on: S. aureus (MRSA 33) Cipro R; format: cell-based, Staphylococcus aureus
[8] = tested on: (MRSA) 562; format: cell-based, Staphylococcus aureus
[9] = tested on: S. epidermidis ATCC 12228; format: cell-based, Staphylococcus epidermidis
[10] = tested on: S. epidermidis (MRSE) 23760; format: cell-based, Staphylococcus epidermidis
[11] = tested on: S. haemo ATCC 29970; format: cell-based
[12] = tested on: E. faecalis 29212; format: cell-based
[13] = tested on: E. faecalis SP 346 (VRE); format: cell-based
[14] = tested on: Salmonella 205; format: cell-based; conditions: S. No. 26, Salmonella 205
Summary of the method: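 Doubling dilutions of compound in DMSO were incorporated into Mueller-Hinton agar; 10^4 CFU/spot inoculated from 0.5 McFarland suspensions and incubated 18 h (24 h for MRSN studies). MIC = lowest concentration without visible growth; valid only when ATCC reference strains gave in-range MICs.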

[15] = tested on: P. aeruginosa ATCC 27853; format: cell-based
[16] = tested on: Serratia marcescens 12999; format: cell-based
[17] = tested on: S. pneumoniae AB-2; format: cell-based, Streptococcus pneumoniae
[18] = tested on: S. pneumoniae AB4; format: cell-based, Streptococcus pneumoniae
[19] = tested on: S. pneumoniae CS1221; format: cell-based, Streptococcus pneumoniae
[20] = tested on: S. pneumoniae 217; format: cell-based, Streptococcus pneumoniae
[21] = tested on: S. pneumoniae AB 16; format: cell-based, Streptococcus pneumoniae
[22] = tested on: S. pneumoniae AB 17; format: cell-based, Streptococcus pneumoniae
[23] = tested on: S. pneumoniae AB 21; format: cell-based, Streptococcus pneumoniae
[24] = tested on: S. pneumoniae AB 22; format: cell-based, Streptococcus pneumoniae
[25] = tested on: S. pneumoniae AB 23; format: cell-based, Streptococcus pneumoniae
[26] = tested on: S. pneumoniae AB 29; format: cell-based, Streptococcus pneumoniae
[27] = tested on: S. pyogenes 19615; format: cell-based, Streptococcus pyogenes
[28] = tested on: S. pyogenes 20361; format: cell-based, Streptococcus pyogenes
[29] = tested on: S. pneumoniae 1251; format: cell-based, Streptococcus pneumoniae
[30] = tested on: S pneumoniae 1294.; format: cell-based, Streptococcus pneumoniae
[31] = tested on: S. pneumoniae 1275; format: cell-based, Streptococcus pneumoniae

SMILES: C[C@H](Cl)C(=O)NCC1CN(c2ccc(N3CCN(c4ccc([N+](=O)[O-])s4)CC3)c(F)c2)C(=O)O1 (stereo partly drawn) [Compound No. 7, (S)—N-[[3-[3-Fluoro-4-[N-1-{4-(5-nitro-2-thienyl)piperazinyl}]-phenyl]-2-oxo-5-oxazolidinyl]-methyl]-2-chloro-propionamide]
- MIC ([1]; S. No. 1, organism cell empty): >8 µg/mL
- MIC ([2]; S. No. 2, S. aureus ATCC29213): >8 µg/mL
- MIC ([3]; S. No. 3, S. aureus SG 511): >8 µg/mL
- MIC ([4]; S. No. 4, S. aureus (MRSA) 15187): >8 µg/mL
- MIC ([5]; S. No. 5, S. aureus (MRSA) 21299): >8 µg/mL
- MIC ([6]; S. No. 6, S. aureus (MRSA) ST450): >8 µg/mL
- MIC ([7]; S. No. 7, S. aureus (MRSA 33) Cipro R): >8 µg/mL
- MIC ([8]; S. No. 8, (MRSA) 562): >8 µg/mL
- MIC ([9]; S. No. 10, S. epidermidis ATCC 12228): 1 µg/mL (≈ 1.95 µM)
- MIC ([10]; S. No. 11, S. epidermidis (MRSE) 23760): 4 µg/mL (≈ 7.81 µM)
- MIC ([11]; S. No. 15, S. haemo ATCC 29970): 2 µg/mL (≈ 3.91 µM)
- MIC ([12]; S. No. 17, E. faecalis 29212): >8 µg/mL
- MIC ([13]; S. No. 20, E. faecalis SP 346 (VRE)): >8 µg/mL
- MIC [14]: >8 µg/mL
- MIC ([15]; S. No. 28, P. aeruginosa ATCC 27853): >8 µg/mL
- MIC ([16]; S. No. 29, Serratia marcescens 12999): >8 µg/mL
- MIC ([17]; S. No. 31, S. pneumoniae AB-2): 0.5 µg/mL (≈ 0.977 µM)
- MIC ([18]; S. No. 33, S. pneumoniae AB4): 0.5 µg/mL (≈ 0.977 µM)
- MIC ([19]; S. No. 34, S. pneumoniae CS1221): 0.5 µg/mL (≈ 0.977 µM)
- MIC ([20]; S. No. 38, S. pneumoniae 217): 1 µg/mL (≈ 1.95 µM)
- MIC ([21]; S. No. 39, S. pneumoniae AB 16): 1 µg/mL (≈ 1.95 µM)
- MIC ([22]; S. No. 40, S. pneumoniae AB 17): 1 µg/mL (≈ 1.95 µM)
- MIC ([23]; S. No. 41, S. pneumoniae AB 21): 1 µg/mL (≈ 1.95 µM)
- MIC ([24]; S. No. 42, S. pneumoniae AB 22): 1 µg/mL (≈ 1.95 µM)
- MIC ([25]; S. No. 43, S. pneumoniae AB 23): 1 µg/mL (≈ 1.95 µM)
- MIC ([26]; S. No. 46, S. pneumoniae AB 29): 0.5 µg/mL (≈ 0.977 µM)
- MIC ([27]; S. No. 51, S. pyogenes 19615): 2 µg/mL (≈ 3.91 µM)
- MIC ([28]; S. No. 53, S. pyogenes 20361): 2 µg/mL (≈ 3.91 µM)
- MIC ([29]; S. No. 54, S. pneumoniae 1251): 1 µg/mL (≈ 1.95 µM)
- MIC ([30]; S. No. 55, S pneumoniae 1294.): 2 µg/mL (≈ 3.91 µM)
- MIC ([31]; S. No. 57, S. pneumoniae 1275): 0.25 µg/mL (≈ 0.488 µM)

SMILES: CN[C@H](CC(C)C)C(=O)N[C@H]1C(=O)N[C@@H](CC(N)=O)C(=O)N[C@H]2C(=O)N[C@H]3C(=O)N[C@H](C(=O)N[C@H](C(=O)O)c4cc(O)cc(O)c4-c4cc3ccc4O)[C@H](O)c3ccc(c(Cl)c3)Oc3cc2cc(c3O[C@@H]2O[C@H](CO)[C@@H](O)[C@H](O)[C@H]2O[C@H]2C[C@](C)(N)[C@H](O)[C@H](C)O2)Oc2ccc(cc2Cl)[C@H]1O [Vancomycin, reference compound]
- MIC ([1]; Staphylococcus aureus, ATCC25923): 1 µg/mL (≈ 0.69 µM)
- MIC ([2]; Staphylococcus aureus, ATCC29213): 0.5 µg/mL (≈ 0.345 µM)
- MIC ([3]; Staphylococcus aureus, SG511): 0.5 µg/mL (≈ 0.345 µM)
- MIC ([4]; Staphylococcus aureus, MRSA): 0.5 µg/mL (≈ 0.345 µM)
- MIC ([5]; Staphylococcus aureus, MRSA): 0.5 µg/mL (≈ 0.345 µM)
- MIC ([6]; Staphylococcus aureus, MRSA): 0.5 µg/mL (≈ 0.345 µM)
- MIC ([7]; Staphylococcus aureus, MRSA): 0.5 µg/mL (≈ 0.345 µM)
- MIC ([8]; Staphylococcus aureus, MRSA): 1 µg/mL (≈ 0.69 µM)
- MIC ([9]; Staphylococcus epidermidis, ATCC12228): 1 µg/mL (≈ 0.69 µM)
- MIC ([10]; Staphylococcus epidermidis, MRSE): 2 µg/mL (≈ 1.38 µM)
- MIC [11]: 1 µg/mL (≈ 0.69 µM)
- MIC ([12]; Enterococcus faecalis, 29212): 4 µg/mL (≈ 2.76 µM)
- MIC ([13]; Enterococcus faecalis, VRE): > 16 µg/mL
- MIC ([14]; read-out: MIC): > 16 µg/mL
- MIC ([15]; Pseudomonas aeruginosa, ATCC27853): > 16 µg/mL
- MIC ([16]; Serratia marcescens, 12999): > 16 µg/mL
- MIC ([17]; Streptococcus pneumoniae, AB2): 0.5 µg/mL (≈ 0.345 µM)
- MIC ([18]; Streptococcus pneumoniae, AB4): 0.25 µg/mL (≈ 0.173 µM)
- MIC ([19]; Streptococcus pneumoniae, CS1221): 0.25 µg/mL (≈ 0.173 µM)
- MIC ([20]; Streptococcus pneumoniae, 217): 0.5 µg/mL (≈ 0.345 µM)
- MIC ([21]; Streptococcus pneumoniae, AB16): 0.25 µg/mL (≈ 0.173 µM)
- MIC ([22]; Streptococcus pneumoniae, AB17): 0.25 µg/mL (≈ 0.173 µM)
- MIC ([23]; Streptococcus pneumoniae, AB21): 0.25 µg/mL (≈ 0.173 µM)
- MIC ([24]; Streptococcus pneumoniae, AB22): 0.25 µg/mL (≈ 0.173 µM)
- MIC ([25]; Streptococcus pneumoniae, AB23): 0.25 µg/mL (≈ 0.173 µM)
- MIC ([26]; Streptococcus pneumoniae, AB29): 0.25 µg/mL (≈ 0.173 µM)
- MIC ([27]; Streptococcus pyogenes, 19615): 0.5 µg/mL (≈ 0.345 µM)
- MIC ([28]; Streptococcus pyogenes, 20361): 0.5 µg/mL (≈ 0.345 µM)
- MIC ([29]; Streptococcus pneumoniae, 1251): 0.25 µg/mL (≈ 0.173 µM)
- MIC ([30]; Streptococcus pneumoniae, 1294.): 0.5 µg/mL (≈ 0.345 µM)
- MIC ([31]; Streptococcus pneumoniae, 1275): 0.5 µg/mL (≈ 0.345 µM)
